Experimental data published in US20230143604A1, “QW DOSING OF GIP RECEPTOR AGONIST PEPTIDE COMPOUNDS AND USES THEREOF” (TAKEDA PHARMACEUTICAL COMPANY LIMITED, priority 2020, published 2023).
Starred links: 1 amine or outer side, 2 acyl side, 3 side chain; linkers in the order of their positions; H or OH if unused. Non-standard residues stand in square brackets, D forms with d. Residues, ends and D or L forms follow the SMILES beside them. Groups on a side chain read outwards from the residue. *: point of attachment. C18 diacid = O=C(O)CCCCCCCCCCCCCCCCC(=O)*; γGlu = O=C(O)[C@H](CCC(=O)[*:2])N[*:1]; NMeY = CN[C@@H](Cc1ccc(O)cc1)C(=O)O; AEEA = NCCOCCOCC(=O)O; Aib = CC(C)(N)C(=O)O

Test: physchem
Summary of the method: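 Solubility at pH 7.4 determined by stepwise addition of 200 mM phosphate buffer in 100 μL increments to 3 mg peptide, mixing briefly each time, until no insoluble material remained, then measured by liquid chromatography.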

Structure (SMILES) | solubility (pH 7.4) [mg/mL] | solubility (pH 7.4, aqueous buffer) [mg/mL]
CC[C@H](C)[C@H](NC(=O)[C@H](CO)NC(=O)[C@H](Cc1ccc(O)cc1)NC(=O)[C@H](CC(=O)O)NC(=O)[C@H](CO)NC(=O)[C@@H](NC(=O)[C@H](Cc1ccccc1)NC(=O)[C@@H](NC(=O)CNC(=O)[C@H](CCC(=O)O)NC(=O)C(C)(C)NC(=O)[C@H](Cc1ccc(O)cc1)NC)[C@@H](C)O)[C@@H](C)CC)C(=O)N[C@@H](C)C(=O)N[C@@H](CC(C)C)C(=O)N[C@@H](CC(=O)O)C(=O)N[C@@H](CCCNC(=N)N)C(=O)NC(C)(C)C(=O)N[C@@H](CCCCNC(=O)COCCOCCNC(=O)COCCOCCNC(=O)CC[C@H](NC(=O)CC[C@H](NC(=O)CCCCCCCCCCCCCCCCC(=O)O)C(=O)O)C(=O)O)C(=O)N[C@@H](CCC(N)=O)C(=O)NC(C)(C)C(=O)N[C@@H](CC(N)=O)C(=O)N[C@@H](Cc1ccccc1)C(=O)N[C@H](C(=O)N[C@@H](CC(N)=O)C(=O)N[C@@H](Cc1c[nH]c2ccccc12)C(=O)N[C@@H](CC(C)C)C(=O)N[C@@H](CC(C)C)C(=O)N[C@@H](C)C(=O)N[C@@H](CCC(N)=O)C(=O)N[C@@H](CO)C(=O)NCC(=O)O)C(C)C [Compound 46] (H-[NMeY][Aib]EGTFISDYSIALDR[Aib]K([AEEA-AEEA-γGlu-γGlu-C18 diacid])Q[Aib]NFVNWLLAQSG-OH) | ≥ 15 | ≥ 30
CC[C@H](C)[C@H](NC(=O)[C@H](CO)NC(=O)[C@H](Cc1ccc(O)cc1)NC(=O)[C@H](CC(=O)O)NC(=O)[C@H](CO)NC(=O)[C@@H](NC(=O)[C@H](Cc1ccccc1)NC(=O)[C@@H](NC(=O)CNC(=O)[C@H](CCC(=O)O)NC(=O)C(C)(C)NC(=O)[C@H](Cc1ccc(O)cc1)NC)[C@@H](C)O)[C@@H](C)CC)C(=O)N[C@@H](C)C(=O)N[C@@H](CC(C)C)C(=O)N[C@@H](CC(=O)O)C(=O)N[C@@H](CCCNC(=N)N)C(=O)NC(C)(C)C(=O)N[C@@H](CCCCNC(=O)COCCOCCNC(=O)COCCOCCNC(=O)CC[C@H](NC(=O)CC[C@H](NC(=O)CCCCCCCCCCCCCCCCC(=O)O)C(=O)O)C(=O)O)C(=O)N[C@@H](CCC(N)=O)C(=O)NC(C)(C)C(=O)N[C@@H](CC(=O)O)C(=O)N[C@@H](Cc1ccccc1)C(=O)N[C@H](C(=O)N[C@@H](CC(N)=O)C(=O)N[C@@H](Cc1c[nH]c2ccccc12)C(=O)N[C@@H](CC(C)C)C(=O)N[C@@H](CC(C)C)C(=O)N[C@@H](C)C(=O)N[C@@H](CCC(N)=O)C(=O)N[C@@H](CCCNC(=N)N)C(=O)NCC(=O)O)C(C)C [Compound 49] (H-[NMeY][Aib]EGTFISDYSIALDR[Aib]K([AEEA-AEEA-γGlu-γGlu-C18 diacid])Q[Aib]DFVNWLLAQRG-OH) | ≥ 15 | ≥ 30
CC[C@H](C)[C@H](NC(=O)[C@H](CO)NC(=O)[C@H](Cc1ccc(O)cc1)NC(=O)[C@H](CC(=O)O)NC(=O)[C@H](CO)NC(=O)[C@@H](NC(=O)[C@H](Cc1ccccc1)NC(=O)[C@@H](NC(=O)CNC(=O)[C@H](CCC(=O)O)NC(=O)C(C)(C)NC(=O)[C@H](Cc1ccc(O)cc1)NC)[C@@H](C)O)[C@@H](C)CC)C(=O)N[C@@H](C)C(=O)N[C@@H](CC(C)C)C(=O)N[C@@H](CC(=O)O)C(=O)N[C@@H](CCCNC(=N)N)C(=O)NC(C)(C)C(=O)N[C@@H](C)C(=O)N[C@@H](CCC(N)=O)C(=O)NC(C)(C)C(=O)N[C@@H](CC(N)=O)C(=O)N[C@@H](Cc1ccccc1)C(=O)N[C@H](C(=O)N[C@@H](CC(N)=O)C(=O)N[C@@H](Cc1c[nH]c2ccccc12)C(=O)N[C@@H](CC(C)C)C(=O)N[C@@H](CC(C)C)C(=O)N[C@@H](C)C(=O)N[C@@H](CCCCNC(=O)COCCOCCNC(=O)COCCOCCNC(=O)CC[C@H](NC(=O)CC[C@H](NC(=O)CCCCCCCCCCCCCCCCC(=O)O)C(=O)O)C(=O)O)C(=O)N[C@@H](CCCNC(=N)N)C(=O)NCC(=O)O)C(C)C [Compound 55] (H-[NMeY][Aib]EGTFISDYSIALDR[Aib]AQ[Aib]NFVNWLLAK([AEEA-AEEA-γGlu-γGlu-C18 diacid])RG-OH) | ≥ 15 | ≥ 30
CC[C@H](C)[C@H](NC(=O)[C@H](CO)NC(=O)[C@H](Cc1ccc(O)cc1)NC(=O)[C@H](CC(=O)O)NC(=O)[C@H](CO)NC(=O)[C@@H](NC(=O)[C@H](Cc1ccccc1)NC(=O)[C@@H](NC(=O)CNC(=O)[C@H](CCC(=O)O)NC(=O)C(C)(C)NC(=O)[C@H](Cc1ccc(O)cc1)NC)[C@@H](C)O)[C@@H](C)CC)C(=O)N[C@@H](C)C(=O)N[C@@H](CC(C)C)C(=O)N[C@@H](CC(=O)O)C(=O)N[C@@H](CCCNC(=N)N)C(=O)NC(C)(C)C(=O)N[C@@H](C)C(=O)N[C@@H](CCC(N)=O)C(=O)NC(C)(C)C(=O)N[C@@H](CC(=O)O)C(=O)N[C@@H](Cc1ccccc1)C(=O)N[C@H](C(=O)N[C@@H](CC(N)=O)C(=O)N[C@@H](Cc1c[nH]c2ccccc12)C(=O)N[C@@H](CC(C)C)C(=O)N[C@@H](CC(C)C)C(=O)N[C@@H](C)C(=O)N[C@@H](CCCCNC(=O)COCCOCCNC(=O)COCCOCCNC(=O)CC[C@H](NC(=O)CC[C@H](NC(=O)CCCCCCCCCCCCCCCCC(=O)O)C(=O)O)C(=O)O)C(=O)N[C@@H](CCCNC(=N)N)C(=O)NCC(=O)O)C(C)C [Compound 56] (H-[NMeY][Aib]EGTFISDYSIALDR[Aib]AQ[Aib]DFVNWLLAK([AEEA-AEEA-γGlu-γGlu-C18 diacid])RG-OH) | ≥ 15 | ≥ 30
CC[C@H](C)[C@H](NC(=O)[C@H](CO)NC(=O)[C@H](Cc1ccc(O)cc1)NC(=O)[C@H](CC(=O)O)NC(=O)[C@H](CO)NC(=O)[C@@H](NC(=O)[C@H](Cc1ccccc1)NC(=O)[C@@H](NC(=O)CNC(=O)[C@H](CCC(=O)O)NC(=O)C(C)(C)NC(=O)[C@H](Cc1ccc(O)cc1)NC)[C@@H](C)O)[C@@H](C)CC)C(=O)N[C@@H](C)C(=O)N[C@@H](CC(C)C)C(=O)N[C@@H](CC(=O)O)C(=O)N[C@@H](CCCNC(=N)N)C(=O)NC(C)(C)C(=O)N[C@@H](C)C(=O)N[C@@H](CCC(N)=O)C(=O)NC(C)(C)C(=O)N[C@@H](CC(=O)O)C(=O)N[C@@H](Cc1ccccc1)C(=O)N[C@H](C(=O)N[C@@H](CC(N)=O)C(=O)N[C@@H](Cc1c[nH]c2ccccc12)C(=O)N[C@@H](CC(C)C)C(=O)N[C@@H](CC(C)C)C(=O)N[C@@H](C)C(=O)N[C@@H](CCCCNC(=O)COCCOCCNC(=O)COCCOCCNC(=O)CC[C@H](NC(=O)CC[C@H](NC(=O)CCCCCCCCCCCCCCCCC(=O)O)C(=O)O)C(=O)O)C(=O)N[C@@H](CCCNC(=N)N)C(=O)NCC(=O)NCC(=O)NCC(=O)NCC(=O)N[C@@H](CO)C(N)=O)C(C)C [Compound 57] (H-[NMeY][Aib]EGTFISDYSIALDR[Aib]AQ[Aib]DFVNWLLAK([AEEA-AEEA-γGlu-γGlu-C18 diacid])RGGGGS-NH2) | ≥ 15 | ≥ 30
